Reference: ChEMBL document CHEMBL1142425, “Bromophenols from the marine red alga Polysiphonia urceolata with DPPH radical scavenging activity” (J Nat Prod, 2008)

Test: DPPH radical scavenging activity
Type: functional

| Compound | IC50 [µM] |
| --- | --- |
| O=Cc1cc(Br)c(O)c(Br)c1 | 35.8 |
| O=Cc1cc(O)c(O)c(Br)c1 | 20.3 |
| Cc1cc(C(C)(C)C)c(O)c(C(C)(C)C)c1 [BUTYLATED HYDROXYTOLUENE] | 83.8 |
| CO[C@@H]1Oc2c(O)c(Br)cc3c2-c2c1cc(Br)c(O)c2O[C@H]3OC [URCEOLATOL] | 15.1 |

Stronger by IC50, values ahead:

| IC50 [µM] | Compound |
| --- | --- |
| 8.1 | Oc1cc2c(c(Br)c1O)COCc1cc(O)c(O)c(Br)c1-2 |
| 6.8 | Oc1cc2c(cc1O)-c1c(cc(Br)c(O)c1O)CC2 |
| 6.1 | Oc1cc2c(c(Br)c1O)-c1c(cc(Br)c(O)c1O)CC2 |
